Laboratory results as given in ChEMBL document CHEMBL4219262, “Design, synthesis and evaluation of benzoheterocycle analogues as potent antifungal agents targeting CYP51” (Bioorg Med Chem, 2018).
Values after ≈ are worked out from the molar mass of the structure shown.

Experiments:
Aspergillus fumigatus = assay: Antifungal activity against Aspergillus fumigatus cgmcc 3.7795 after 7 days by serial dilution method; assay type: functional; conditions: cgmcc 3.7795, 168 h
Candida tropicalis = assay: Antifungal activity against Candida tropicalis cgmcc 2.3739 after 24 hrs by serial dilution method; assay type: functional; conditions: cgmcc 2.3739, 24 h
Candida albicans [1] = assay: Antifungal activity against Candida albicans ATCC SC5314 after 24 hrs by serial dilution method; assay type: functional; conditions: SC5314, 24 h
Candida albicans [2] = assay: Antifungal activity against Candida albicans CPCC 400523 after 24 hrs by serial dilution method; assay type: functional; conditions: CPCC 400523, 24 h
Cryptococcus neoformans = assay: Antifungal activity against Cryptococcus neoformans cgmcc 2.3161 after 72 hrs by serial dilution method; assay type: functional; conditions: cgmcc 2.3161, 72 h
Candida albicans [3] = assay: Antifungal activity against fluconazole-resistant Candida albicans strain 100 after 24 hrs by serial dilution method; assay type: functional; conditions: Candida albicans, 100, 24 h
Candida albicans [4] = assay: Antifungal activity against fluconazole-resistant Candida albicans strain 103 after 24 hrs by serial dilution method; assay type: functional; conditions: Candida albicans, 103, 24 h
[5] = Stability in human plasma assessed as parent compound remaining at 2 uM after 60 mins by LC-MS/MS analysis; assay type: ADME, cell-free; conditions: read-out: Stability
[6] = Stability in human plasma assessed as parent compound remaining at 2 uM after 120 mins by LC-MS/MS analysis; assay type: ADME, cell-free; conditions: read-out: Stability

| SMILES | MIC (Aspergillus fumigatus) [µg/mL] | MIC (Candida tropicalis) [µg/mL] | MIC (Candida albicans [1]) [µg/mL] | MIC (Candida albicans [2]) [µg/mL] | MIC (Cryptococcus neoformans) [µg/mL] | MIC (Candida albicans [3]) [µg/mL] | MIC (Candida albicans [4]) [µg/mL] | remaining at 1 h, 2 µM [5] [%] | remaining at 2 h, 2 µM [6] [%] |
| --- | --- | --- | --- | --- | --- | --- | --- | --- | --- |
| CC(C)OC(=O)[C@H](Cn1ccnc1)NC(=O)c1nc2ccc(Br)cc2s1 | > 64 | 1 (≈ 2.29 µM) | 0.125 (≈ 0.286 µM) | 0.5 (≈ 1.14 µM) | 2 (≈ 4.57 µM) | – | – | – | – |
| CC(C)COC(=O)[C@H](Cn1ccnc1)NC(=O)c1cnc2ccccc2c1 | 64 (≈ 175 µM) | 32 (≈ 87.3 µM) | 64 (≈ 175 µM) | 64 (≈ 175 µM) | 64 (≈ 175 µM) | – | – | – | – |
| CC(C)COC(=O)[C@H](Cn1ccnc1)NC(=O)c1cc2ccccc2s1 | 8 (≈ 21.5 µM) | 0.25 (≈ 0.673 µM) | 0.5 (≈ 1.35 µM) | 1 (≈ 2.69 µM) | 1 (≈ 2.69 µM) | – | – | – | – |
| CC(C)COC(=O)[C@H](Cn1ccnc1)NC(=O)c1noc2c1CCc1ccccc1-2 | 8 (≈ 19.6 µM) | 0.125 (≈ 0.306 µM) | 0.125 (≈ 0.306 µM) | 0.5 (≈ 1.22 µM) | 4 (≈ 9.79 µM) | 1 (≈ 2.45 µM) | 0.5 (≈ 1.22 µM) | – | – |
| CC(C)OC(=O)[C@H](Cn1ccnc1)NC(=O)c1cnc2ccccc2c1 | 64 (≈ 182 µM) | 32 (≈ 90.8 µM) | 64 (≈ 182 µM) | 64 (≈ 182 µM) | 64 (≈ 182 µM) | – | – | – | – |
| CC(C)OC(=O)[C@H](Cn1ccnc1)NC(=O)c1cc2ccccc2o1 | 32 (≈ 93.7 µM) | 0.5 (≈ 1.46 µM) | 16 (≈ 46.9 µM) | 32 (≈ 93.7 µM) | 4 (≈ 11.7 µM) | – | – | – | – |
| CC(C)OC(=O)[C@H](Cn1ccnc1)NC(=O)c1cc2ccc(F)cc2[nH]1 | 64 (≈ 179 µM) | 0.5 (≈ 1.4 µM) | 32 (≈ 89.3 µM) | 32 (≈ 89.3 µM) | 8 (≈ 22.3 µM) | – | – | – | – |
| CC(C)OC(=O)[C@H](Cn1ccnc1)NC(=O)c1ccc2c(c1)OCO2 | 64 (≈ 185 µM) | 32 (≈ 92.7 µM) | 64 (≈ 185 µM) | 64 (≈ 185 µM) | 64 (≈ 185 µM) | – | – | – | – |
| COc1ccc2c(c1)-c1onc(C(=O)N[C@@H](Cn3ccnc3)C(=O)OC(C)C)c1CC2 | 64 (≈ 151 µM) | 2 (≈ 4.71 µM) | 0.25 (≈ 0.589 µM) | 16 (≈ 37.7 µM) | 64 (≈ 151 µM) | – | – | – | – |
| CC(C)COC(=O)[C@H](Cn1ccnc1)NC(=O)c1noc2c1ccc1ccccc12 | 16 (≈ 39.4 µM) | 0.125 (≈ 0.308 µM) | 0.125 (≈ 0.308 µM) | 0.25 (≈ 0.615 µM) | 0.125 (≈ 0.308 µM) | 2 (≈ 4.92 µM) | 2 (≈ 4.92 µM) | – | – |
| CC(C)OC(=O)[C@H](Cn1ccnc1)NC(=O)c1noc2c1ccc1ccccc12 | 4 (≈ 10.2 µM) | 0.125 (≈ 0.319 µM) | 0.125 (≈ 0.319 µM) | 0.25 (≈ 0.637 µM) | 0.25 (≈ 0.637 µM) | 2 (≈ 5.1 µM) | 1 (≈ 2.55 µM) | 95.8 | 91.7 |

Further compounds by falling MIC (Aspergillus fumigatus), results first:

| MIC (Aspergillus fumigatus) [µg/mL] | MIC (Candida tropicalis) [µg/mL] | MIC (Candida albicans [1]) [µg/mL] | MIC (Candida albicans [2]) [µg/mL] | MIC (Cryptococcus neoformans) [µg/mL] | SMILES | MIC (Candida albicans [3]) [µg/mL] | MIC (Candida albicans [4]) [µg/mL] | remaining at 1 h, 2 µM [5] [%] | remaining at 2 h, 2 µM [6] [%] |
| --- | --- | --- | --- | --- | --- | --- | --- | --- | --- |
| 64 (≈ 187 µM) | 64 (≈ 187 µM) | 64 (≈ 187 µM) | 64 (≈ 187 µM) | 64 (≈ 187 µM) | CC(C)OC(=O)[C@H](Cn1ccnc1)NC(=O)c1nc2ccccc2[nH]1 | – | – | – | – |
| 64 (≈ 181 µM) | 0.5 (≈ 1.41 µM) | 8 (≈ 22.6 µM) | 8 (≈ 22.6 µM) | 64 (≈ 181 µM) | CC(C)OC(=O)[C@H](Cn1ccnc1)NC(=O)c1cc2ccccc2n1C | – | – | – | – |
| 64 (≈ 181 µM) | 16 (≈ 45.3 µM) | 64 (≈ 181 µM) | 64 (≈ 181 µM) | 64 (≈ 181 µM) | CC(C)OC(=O)[C@H](Cn1ccnc1)NC(=O)c1cnc2ccccc2n1 | – | – | – | – |
| 64 (≈ 178 µM) | 16 (≈ 44.5 µM) | 64 (≈ 178 µM) | 64 (≈ 178 µM) | 64 (≈ 178 µM) | CC(C)COC(=O)[C@H](Cn1ccnc1)NC(=O)c1ccc2c(c1)OCO2 | – | – | – | – |
| 64 (≈ 174 µM) | 1 (≈ 2.71 µM) | 8 (≈ 21.7 µM) | 8 (≈ 21.7 µM) | 4 (≈ 10.9 µM) | CC(C)COC(=O)[C@H](Cn1ccnc1)NC(=O)c1cc2ccccc2n1C | – | – | – | – |
| 64 (≈ 187 µM) | 32 (≈ 93.5 µM) | 64 (≈ 187 µM) | 64 (≈ 187 µM) | 64 (≈ 187 µM) | CC(C)OC(=O)[C@H](Cn1ccnc1)NC(=O)c1ccc2ncoc2c1 | – | – | – | – |
| 64 (≈ 157 µM) | 1 (≈ 2.45 µM) | 16 (≈ 39.2 µM) | 2 (≈ 4.9 µM) | 64 (≈ 157 µM) | CC(C)OC(=O)[C@H](Cn1ccnc1)NC(=O)c1noc2c1CCCc1ccccc1-2 | – | – | – | – |
| 64 (≈ 180 µM) | 64 (≈ 180 µM) | 64 (≈ 180 µM) | 64 (≈ 180 µM) | 64 (≈ 180 µM) | Cc1nc2ccc(C(=O)N[C@@H](Cn3ccnc3)C(=O)OC(C)C)cc2o1 | – | – | – | – |
| 64 (≈ 151 µM) | 8 (≈ 18.8 µM) | 0.25 (≈ 0.589 µM) | 4 (≈ 9.42 µM) | 64 (≈ 151 µM) | COc1ccc2c(c1)CCc1c(C(=O)N[C@@H](Cn3ccnc3)C(=O)OC(C)C)noc1-2 | – | – | – | – |
| 32 (≈ 90 µM) | 0.25 (≈ 0.703 µM) | 8 (≈ 22.5 µM) | 8 (≈ 22.5 µM) | 4 (≈ 11.3 µM) | CC(C)COC(=O)[C@H](Cn1ccnc1)NC(=O)c1cc2ccccc2o1 | – | – | – | – |
